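Cells were grown in 96-well plates and exposed to each compound for 48 hours at five concentrations; endpoints were interpolated linearly between bracketing concentrations, or set to the highest concentration if not reached. GI50 = concentration required for 50% inhibition of growth.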 Calls of active or inactive are those of the source. Cut-off read from the data, not from the text of the source: active = GI50 up to about 1.1 µM and inactive = higher.
Assays:
Test in all cases: NCI tumour cell line growth inhibition, 48 h
[1] = system: A498
[2] = system: A549
[3] = system: 786-0
[4] = system: EKVX
[5] = system: TK-10
[6] = system: PC-3
[7] = system: SNB-75
[8] = system: KM12
[9] = system: LOX IMVI
[10] = system: ACHN
[11] = system: HCC 2998
[12] = system: MOLT-4
[13] = system: MDA-N
[14] = system: NCI-H460
[15] = system: BT-549
[16] = system: HCT-15
[17] = system: SK-OV-3
[18] = system: HOP-62
[19] = system: HCT-116
[20] = system: K562

## C/C=C(/C)c1cnc(CC(C)C)c(=O)[nH]1
[1]
  GI50: > 100 µM (inactive)
[2]
  GI50: > 100 µM (inactive)
[3]
  GI50: > 100 µM (inactive)
[4]
  GI50: > 100 µM (inactive)
[5]
  GI50: > 100 µM (inactive)
[6]
  GI50: > 100 µM (inactive)
[7]
  GI50: > 100 µM (inactive)
[8]
  GI50: > 100 µM (inactive)
[9]
  GI50: > 100 µM (inactive)
[10]
  GI50: > 100 µM (inactive)
[11]
  GI50: > 100 µM (inactive)
[12]
  GI50: > 100 µM (inactive)
[13]
  GI50: > 100 µM (inactive)
[14]
  GI50: > 100 µM (inactive)
[15]
  GI50: > 100 µM (inactive)
[16]
  GI50: > 100 µM
[17]
  GI50: > 100 µM (inactive)
[18]
  GI50: > 100 µM (inactive)
[19]
  GI50: > 100 µM (inactive)
[20]
  GI50: > 100 µM (inactive)

## Cc1ccc(C(=N)Nc2ccccc2)cc1
[1]
  GI50: > 100 µM (inactive)
[2]
  GI50: > 100 µM (inactive)
[3]
  GI50: > 100 µM (inactive)
[4]
  GI50: > 100 µM (inactive)
[5]
  GI50: > 100 µM (inactive)
[6]
  GI50: > 100 µM (inactive)
[7]
  GI50: > 100 µM (inactive)
[8]
  GI50: > 100 µM (inactive)
[9]
  GI50: > 100 µM (inactive)
[10]
  GI50: > 100 µM (inactive)
[11]
  GI50: 8.13 µM (inactive)
[12]
  GI50: > 100 µM (inactive)
[13]
  GI50: > 100 µM (inactive)
[14]
  GI50: > 100 µM (inactive)
[15]
  GI50: > 100 µM (inactive)
[16]
  GI50: > 100 µM
[17]
  GI50: > 100 µM (inactive)
[18]
  GI50: > 100 µM (inactive)
[19]
  GI50: > 100 µM (inactive)
[20]
  GI50: > 100 µM (inactive)

Source: ChEMBL document CHEMBL1201862, “PubChem BioAssay data set” (2004)
